According to patent US20130172244A1, “SUBCUTANEOUS THERAPEUTIC USE OF DPP-4 INHIBITOR” (priority 2011, published 2013):
Ends that are not written are not given here.

What was measured:
[1] = system: rats fed a high-fat diet (diet induced obesity); assay: Chronic treatment in non-diabetic model of diet induced obesity: body weight, total body fat, liver fat, intramyocellular fat (MRS); format: in vivo; conditions: 6 weeks, linagliptin 10 mg/kg, sibutramine 5 mg/kg; for Body weight % baseli. / Intra-myocellular fat % baseli. / Liver fat % baseli. / Total body fat % baseli.: versus baseline; for Body weight % contr. / Intra-myocellular fat % contr. / Liver fat % contr. / Total body fat % contr.: versus control; for Intra-myocellular fat % baseli. / Liver fat % baseli. / Total body fat % baseli. / Intra-myocellular fat % contr. / Liver fat % contr. / Total body fat % contr.: MRS
Description: Magnetic resonance spectroscopy (MRS) analysis of total body fat, muscle fat, and liver fat is performed before treatment and at the end of the study.

[2] = clinical; conditions: human, urine, po
[3] = system: normal-weight male Sprague-Dawley rats; assay: Acute s.c. dosing, nocturnal food intake in normal-weight rats; format: in vivo; conditions: linagliptin 0.1-0.5 mg/kg, GLP-1 0.2-0.4 mg/kg
Description: (§1) However, it is not known whether DPP-IV inhibition in conjunction with glucagon-like peptide (GLP)-1 administration would influence body weight.
(§2) Materials and methods: Normal-weight and DIO male Sprague-Dawley rats were used for acute and chronic dosing experiments, respectively. All rats were stratified to treatment groups according to individual body weight and whole-body fat mass. Linagliptin+GLP-1 combination treatment was evaluated in both acute and chronic treatment settings and compared with monotherapy and vehicle controls. […] For comparison, DIO rats were exposed to 28 days of liraglutide monotherapy. All drugs were administered twice daily subcutaneously (s.c.). […] In comparison, chronic liraglutide (0.2 mg/kg) treatment evoked a long-lasting hypophagic response with a weight loss of −10.8±0.5% and 12.2±0.6% at day 14 and 28, respectively.

[4] = system: RIP-B7.1 tg mice; assay: Diabetes development in RIP-B7.1 transgenic mice after proinsulin/insulin A-chain plasmid vaccination; format: in vivo
Excerpt: Dipeptidyl peptidase (DPP)-4 inhibitors block incretin degradation by DPP-4. […] As in humans, diabetes development in this model critically depends on activated CD8 T cells. Diabetes develops in RIP-B7.1 tg mice after a single intramuscular (i.m.) vaccination (vac) of proinsulin (PI) plasmid DNA.
Vac A: Diabetes is induced using a PI-encoding plasmid resulting in an aggressive insulitis. Vac B: vac with insulin A-chain encoding plasmid results in a delayed diabetes development compared to vac A. With vac A (n=20 tg mice), diabetes incidence is 80% 5 weeks after vac, whereas vac B (n=34) results in 79% incidence after 12 wks in placebotreated mice.

[5] = system: DIO male Sprague-Dawley rats; assay: Chronic s.c. dosing, body weight and food intake in diet-induced obese (DIO) rats; format: in vivo; conditions: DIO rat, s.c. twice daily
Description: as §1, §2

[6] = Safety and tolerability in people with type 2 diabetes
[7] = system: non-obese-diabetic (NOD) mice; assay: Onset of diabetes and beta-cell mass in non-obese-diabetic (NOD) mice; format: in vivo; conditions: female NOD mice
Excerpt: Though reduced pancreatic T-cell migration and altered cytokine production is considered important players for the onset of insulinitis the exact mechanism and effects on the pancreatic cell pool is still incompletely understood.
Bi-weekly plasma samples are obtained to determine onset of diabetes (BG>11 mmol/l).

[8] = 2 h postprandial blood glucose excursions in patients with type 2 diabetes; format: in vivo, human; conditions: Day 1; oral doses ≧2.5 mg
[9] = Pharmacokinetics of BI 1356 in patients with type 2 diabetes, multiple oral doses once daily for 12 days
[10] = 2.5 mg oral once daily, steady state (Day 12), gMean (gCV)
[11] = 10 mg oral once daily, steady state (Day 12), gMean (gCV)

For `CC(C)CC(N(C)C)C1(c2ccc(Cl)cc2)CCC1` (stereo not drawn) [Sibutramine, reference compound], the “Body weight % baseli.” value [1] was “+1%”, the “Body weight % contr.” value [1] was −12% and the “Intra-myocellular fat % baseli.” value [1] was −34%. For the same compound, the “Liver fat % baseli.” value [1] was −29%, the “Total body fat % baseli.” value [1] was −0.4% and the “Intra-myocellular fat % baseli.” value ([1]; listed as sibutramine) was −34%. For the same compound, the “Intra-myocellular fat % contr.” value [1] was −55%, the “Liver fat % contr.” value [1] was −30% and the “Total body fat % contr.” value [1] was −12%. For the same compound, the “Liver fat % contr.” value ([1]; listed as sibutramine) was −30% and the “Total body fat % contr.” value ([1]; listed as sibutramine) was −12%.

In the case of `CC#CCn1c(N2CCC[C@@H](N)C2)nc2c1c(=O)n(Cc1nc(C)c3ccccc3n1)c(=O)n2C` [linagliptin], the CL renal [2] is reported as 14 to 70 mL/min, the CL renal ([2]; 5 mg) is reported as ~70 mL/min and the “effect on nocturnal food intake” value [3] is reported as “no effect”. The “Body weight % baseli.” value [1] was “+12%”, the “Body weight % contr.” value [1] was −3% and the “Body weight % contr.” value ([1]; listed as Linagliptin) was −3%. For the same compound, the “Intra-myocellular fat % baseli.” value [1] was −24%, the “Liver fat % baseli.” value [1] was −30% and the “Total body fat % baseli.” value [1] was “+5%”. The “Intra-myocellular fat % baseli.” value ([1]; listed as Linagliptin) was −24%, the “Intra-myocellular fat % contr.” value [1] was −36% and the “Liver fat % contr.” value [1] was −39%. For the same compound, the “Total body fat % contr.” value [1] was −5%, the “Liver fat % contr.” value ([1]; listed as Linagliptin) was −39% and the “Total body fat % contr.” value ([1]; listed as Linagliptin) was −5%. The “Serum levels of the regulatory cytokine IL-10” value ([4]; linagliptin 3 mg/kg/day oral) was “significantly upregulated”, the “islet insulin content after diabetes onset” value ([4]; linagliptin 3 mg/kg/day oral) was “partially preserved” and the “number of islet antigen-specific CD8 T cells expressing IFN-γ (FACS and ELISPOT)” value ([4]; linagliptin 3 mg/kg/day oral versus placebo) was “equal number”. For the same compound, the diabetes incidence ([4]; vac A (PI-encoding plasmid), after wk 8 of follow-up, linagliptin 3 mg/kg/day oral, placebo 80% at 5 wks) was 80%, the diabetes incidence ([4]; vac B (insulin A-chain plasmid), during 14 wks follow up, linagliptin 3 mg/kg/day oral, control 92% wk 14) was ≤ 62% and the “effect of 14 days of monotherapy” value [5] was “no effect”. For the same compound, the safety and tolerability [6] was “placebo-like safety and tolerability”, the “incidence of diabetes (BG>11 mmol/l) at the end of the study period” value ([7]; 60 days, diet with 0.083 g linagliptin/kg chow (3-10 mg/kg p.o.), control 18 of 30) was 9 out of 30 and the “beta cell mass (insulin immunoreactivity, stereology)” value ([7]; 60 days, linagliptin in diet, vehicle 0.18±0.03) was 0.48±0.09 mg. For the same compound, the total islet mass ([7]; 60 days, linagliptin in diet, vehicle 0.40±0.04) was 0.70 ± 0.09 mg, the peri-islet infiltrating lymphocytes ([7]; 60 days, linagliptin in diet, vehicle 1.06±0.15) was 0.79 ± 0.12 mg and the “active plasma GLP-1 at termination” value ([7]; versus control) was “higher”. The “decrease in 2 h postprandial blood glucose excursions” value [8] was ≥ 80%, the “feT,ss” value ([9]; 1 mg oral once daily, steady state (Day 12), gMean (gCV)) was 3.34 (38.3) % and the fe0-24 ([9]; 2.5 mg oral once daily for 12 days, gMean (gCV)) was 0.139 (51.2) %. For the same compound, the “AUCT,ss” value [9, 10] was 117 (16.3) nmol · h/L, the “feT,ss” value [9, 10] was 3.06 (45.1) % and the fe0-24 ([9]; 5 mg oral once daily for 12 days, gMean (gCV)) was 0.453 (125) %. The “feT,ss” value ([9]; 5 mg oral once daily, steady state (Day 12), gMean (gCV)) was 6.27 (42.2) %, the fe0-24 ([9]; 10 mg oral once daily for 12 days, gMean (gCV)) was 0.919 (115) % and the “T1/2,ss” value [9, 11] was 130 (11.7) h. The “feT,ss” value [9, 11] was 3.22 (34.2) %, the “form and path of excretion” value ([9]; human, in vivo) was “primarily excreted unchanged via the bile” and the “mean accumulation ratio RA,AUC” value ([9]; oral doses above 1 mg once daily) was ≤ 1.4. For the same compound, the “fraction excreted via the kidney” value ([9]; therapeutic oral dose levels) was < 7 % of the administered oral dose and the “main route of excretion” value ([9]; therapeutic oral dose levels) was “mainly excreted via the liver”.

With “GLP-1: native glucagon-like peptide (GLP)-1 (7-36) (HAEGTFTSDVSSYLEGQAAKEFIAWLVKGR; ends and bridges not checked; UniProt P01275 98-127, looked up)” the “effect on nocturnal food intake” value [3] was “rapid-onset suppression of food intake” and the “effect of 14 days of monotherapy” value [5] was “no effect”.
